According to patent US20260183350A1, “ANTIBIOTIC-RESISTANT BACTERIA” (priority 2022, published 2026):

Columns and labels:
[1] = system: NDM-1 Klebsiella pneumoniae; test: Nutrient preference assay (nutrient mixture); format: cell-based; conditions: M9 with […] of each nutrient, up to 24 hours
Protocol: (§1) New Delhi Metallo-β-lactamase 1 (NDM-1) Escherichia coli, NDM-1 Klebsiella pneumoniae, and NDM-1 Enterobacter cloacae were isolated from patients with intestinal CRE colonisation from the Imperial College Healthcare NHS Trust via rectal swab (REC ref. 19/LO/0112). The species were assigned by matrix assisted laser desorption ionization-time of flight (MALDI-TOF) mass spectrometry and later confirmed with 16S rRNA gene sequencing. CRE status was determined using X-pert Carba-R PCR detection (Cepheid, Sunnyvale, CA, USA), (Otter, J. A. et al. Detecting carbapenemase-producing Enterobacterales (CPE): an evaluation of an enhanced CPE infection control and screening programme in acute care. J Antimicrob Chemother 75, 2670-2676 (2020)).
(§2) CRE isolates were passaged once from frozen glycerol stocks on R2A plates. Cells were suspended in M9 minimal media to a turbidity of 42% using a Turbidimeter (Biolog Inc.), then diluted 1 in 6 to inoculate the nutrient preference assays. M9 minimal media was supplemented with 0.015% of each of the following: L-arabinose, D-fructose, L-fucose, D-galactose, D-glucose, D-mannose, D-ribose, D-xylose, N-acetylglucosamine, D-maltose, sucrose, D-trehalose, L-alanine, L-arginine, L-aspartate, L-glutamate, L-glycine, L-isoleucine, L-leucine, L-lysine, L-methionine, L-phenylalanine, L-proline, L-threonine, L-tryptophan, L-tyrosine, L-valine, uracil, and succinate. Cultures were incubated anaerobically and aerobically in a plate reader and OD600 readings were collected every 15 minutes for 24 hours. Cultures were also incubated anaerobically and aerobically for 24 h and samples were collected at 0, 4, 8, and 24 hours post-inoculation for 1H-NMR spectroscopy. Changes in nutrients and metabolites by CRE isolates was compared to the sterile media control over time using a two-way mixed ANOVA followed by pairwise comparisons with Bonferroni correction. […]

NDM-1 Escherichia coli [2] = test: Nutrient preference assay (nutrient mixture); format: cell-based; conditions: M9 with […] of each nutrient, up to 24 hours
Protocol: as §1, §2

[3] = system: NDM-1 Enterobacter cloacae; test: Nutrient preference assay (nutrient mixture); format: cell-based; conditions: M9 with […] of each nutrient, up to 24 hours
Protocol: as §1, §2

[4] = system: NDM-1 Klebsiella pneumoniae; test: Carbon utilisation assay; format: cell-based; conditions: M9 minimal medium, 0.5% (w/v) carbon source
Protocol: as §1
(§3) Growth of CRE isolates on sole carbon or nitrogen sources was tested by inoculating each CRE isolate into a minimal medium supplemented with the nutrient of interest. First, CRE isolates were passaged from frozen glycerol stocks on Reasoner's 2A agar (R2A) plates. Cells were then suspended in M9 minimal media to a turbidity of 42% using a Turbidimeter (Biolog Inc.), then diluted a further 1 in 6 to inoculate the carbon or nitrogen utilisation assays. M9 minimal media contained the following (at final concentrations): 22 mM KH2PO4, 42 mM Na2HPO4, 9 mM NaCl, 0.49 mM MgSO4·7H2O, 0.09 mM CaCl2), 0.011 mM FeSO4·7H2O. For the carbon assays the M9 minimal medium was also supplemented with 0.1% (w/v) NH4Cl (as the nitrogen source) and the carbon sources were individually tested at 0.5% (w/v) concentration. For the nitrogen assays the M9 minimal medium was also supplemented with 0.5% (w/v) glucose (as the carbon source) and the nitrogen sources were individually tested at 0.1% (w/v) concentration. Cultures were incubated anaerobically and aerobically in a plate reader and OD600 readings were collected every 15 minutes for 24 hours.
(§4) Growth curves were analysed in Python (v3.6.5) using the AMiGA software (Midani, F. S., Collins, J. & Britton, R. A. AMiGA: Software for Automated Analysis of Microbial Growth Assays. mSystems 6, e0050821 (2021)). Growth of each isolate was measured with 6 wells from 2-3 independent experiments. Growth curves were normalised to the no substrate control using the subtraction method. AMiGA performed Gaussian Process regression to test differential growth between the substrate and the no substrate control. The functional difference in the OD (and its credible interval) was also computed between the substrate and the no substrate control.

NDM-1 Escherichia coli [5] = test: Carbon utilisation assay; format: cell-based; conditions: M9 minimal medium, 0.5% (w/v) carbon source
Protocol: as §1, §3, §4

[6] = system: NDM-1 Enterobacter cloacae; test: Carbon utilisation assay; format: cell-based; conditions: M9 minimal medium, 0.5% (w/v) carbon source
Protocol: as §1, §3, §4

[7] = system: NDM-1 Klebsiella pneumoniae; test: Nitrogen utilisation assay; format: cell-based; conditions: M9 minimal medium with glucose, 0.1% (w/v) nitrogen source
Protocol: as §1, §3, §4

NDM-1 Escherichia coli [8] = test: Nitrogen utilisation assay; format: cell-based; conditions: M9 minimal medium with glucose, 0.1% (w/v) nitrogen source
Protocol: as §1, §3, §4

[9] = system: NDM-1 Enterobacter cloacae; test: Nitrogen utilisation assay; format: cell-based; conditions: M9 minimal medium with glucose, 0.1% (w/v) nitrogen source
Protocol: as §1, §3, §4

[10] = system: vancomycin-resistant E. faecium; test: VRE nutrient utilization protocol: carbon sources; format: cell-based, Enterococcus faecium; conditions: aerobic; VRE minimal medium
Protocol: (§5) VRE minimal media consists of potassium phosphate monobasic (4 g/L), potassium phosphate dibasic (14 g/L), sodium citrate (1 g/L), magnesium sulphate (0.2 g/L), ammonium sulphate (2 g/L), adenosine (0.04 g/L), thymine (0.04 g/L), Kao and Michayluk vitamin solution [Sigma, K3129, 50× Stock](5×), glucose (1 g/L) and amino acid solution [Sigma, R7131, RPMI-1640, 50×](25×). If the study was performed under anaerobic conditions, fumarate (5.2 g/L) was added to increase growth of VRE strains. Carbon-free minimal media was prepared by leaving out glucose while nitrogen-free minimal media was prepared without the amino acid solution. Media was filter sterilized with a 0.22 micron filter and used immediately aerobically or degassed overnight if used anaerobically.
(§6) VRE strains were grown on R2A overnight before the cells were suspended in 0.9% saline to an OD of 0.38 (λ=595 nm). A 10% dilution of the cell suspension was prepared using VRE minimal media to achieve a final well OD of […] (λ=595 nm) greater than the sterile media OD. Both carbon and nitrogen source utilization were evaluated by adding the inoculated media and a filter-sterilised nutrient source solution into a well in a 1:1 ration to a final volume of 100 μL in aerobic tests and 200 μL in anaerobic tests. Carbon sources were tested individually and compared to a carbon-free control. To test nitrogen source utilization, a nitrogen source solution was prepared containing L-alanine (2 g/L), L-arginine (2.5 g/L, L-asparagine (0.71 g/L), L-aspartate (0.25 g/L), L-cysteine (0.625 g/L), L-glutamate (0.25 g/L), L-Glycine (0.125 g/L), L-histidine (0.1875 g/L), L-isoleucine (0.625 g/L), L-leucine (0.625 g/L), L-lysine HCl (0.5 g/L), L-methionine (0.1875 g/L), L-phenylalanine (0.1875 g/L), L-proline (0.25 g/L), L-serine (0.375 g/L), L-threonine (0.25 g/L), L-tryptophan (0.0625 g/L), L-tyrosine (0.29 g/L), L-valine (0.25 g/L), N-acetylglucosamine (2 g/L), and uracil (2.5 g/L). To test the strains' ability to utilize individual nitrogen sources, separate solutions were prepared eliminating one nitrogen source each. The change in growth compared to the complete nitrogen source solution control was used to determine nitrogen utilization. All carbon and nitrogen sources were tested in a technical triplicate for each biological replicate. Aerobic plates were incubated with a plate seal while anaerobic plates were not. The aerobic plate reader was set to read the plate (λ=595 nm, 37° C., 22 flashes per well, orbital shaking of 100 rpm for 15 s prior to each read) every 15 minutes for 24 hours. The anaerobic plate reader read the plate (λ=595 nm, 37° C., stationary) every 15 minutes for 24 hours.

[11] = system: vancomycin-resistant E. faecium; test: VRE nutrient utilization protocol: nitrogen sources, leave-one-out; format: cell-based, Enterococcus faecium; conditions: aerobic; leave-one-out from nitrogen source mixture in minimal medium
Protocol: as §5, §6

[12] = system: vancomycin-resistant E. faecalis; test: as above; format: cell-based, Enterococcus faecalis; conditions: aerobic; leave-one-out from nitrogen source mixture in minimal medium
Protocol: as §5, §6

| SMILES | Utilisation of nutrient by K. pneumoniae from nutrient mixture (1H-NMR) ([1]; anaerobic) | Utilisation of nutrient by E. coli from nutrient mixture (1H-NMR) (NDM-1 Escherichia coli [2]; anaerobic) | Utilisation of nutrient by E. cloacae from nutrient mixture (1H-NMR) ([3]; anaerobic) | Use as sole nitrogen source to support K. pneumoniae growth ([7]; aerobic) | Use as sole nitrogen source to support E. coli growth (NDM-1 Escherichia coli [8]; aerobic) | Use as sole nitrogen source to support E. cloacae growth ([9]; aerobic) | Utilisation of nutrient by E. cloacae from nutrient mixture (1H-NMR) ([3]; aerobic) | Use as nitrogen source to support E. faecium growth [11] | Use as nitrogen source to support E. faecalis growth [12] | Utilisation of nutrient by K. pneumoniae from nutrient mixture (1H-NMR) ([1]; aerobic) | Utilisation of nutrient by E. coli from nutrient mixture (1H-NMR) (NDM-1 Escherichia coli [2]; aerobic) | other results |
| --- | --- | --- | --- | --- | --- | --- | --- | --- | --- | --- | --- | --- |
| C[C@H](N)C(=O)O [alanine, L-alanine] | not utilised | not utilised | not utilised | able to grow | able to grow | able to grow |  |  |  |  |  | Use as sole carbon source to support K. pneumoniae growth ([4]; aerobic): able to grow; Use as sole carbon source to support E. coli growth (NDM-1 Escherichia coli [5]; aerobic): able to grow; Use as sole carbon source to support E. cloacae growth ([6]; aerobic): able to grow |
| O=C[C@H](O)[C@@H](O)[C@@H](O)CO [arabinose, L-arabinose] |  |  |  |  |  |  |  |  |  |  |  | Use as sole carbon source to support K. pneumoniae growth ([4]; anaerobic): could use; Use as sole carbon source to support E. coli growth (NDM-1 Escherichia coli [5]; anaerobic): could use; Use as sole carbon source to support E. cloacae growth ([6]; anaerobic): could use; Use as sole carbon source to support E. faecium growth [10]: could use |
| N=C(N)NCCC[C@H](N)C(=O)O [arginine, L-arginine] |  |  | high utilisation | could use |  |  | high utilisation | could use | could use |  |  | Use as sole nitrogen source to support K. pneumoniae growth ([7]; anaerobic): could use; Use as sole nitrogen source to support E. coli growth (NDM-1 Escherichia coli [8]; anaerobic): could use; Use as sole nitrogen source to support E. cloacae growth ([9]; anaerobic): could use |
| N[C@@H](CCC(=O)O)C(=O)O [glutamate, L-glutamate] |  |  |  | able to grow | able to grow | able to grow | moderate utilisation | could use | could use | moderate utilisation | moderate utilisation | Use as sole carbon source to support K. pneumoniae growth ([4]; aerobic): able to grow; Use as sole carbon source to support E. cloacae growth ([6]; aerobic): able to grow |
| NCCCC[C@H](N)C(=O)O [lysine, L-lysine] | high utilisation | high utilisation | produced low levels | able to grow | able to grow | able to grow | produced low levels | could use | could use | high utilisation | moderate utilisation |  |
| CSCC[C@H](N)C(=O)O [methionine, L-methionine] |  |  |  | able to grow | able to grow | able to grow |  | could use | could use |  |  |  |
| N[C@@H](Cc1c[nH]c2ccccc12)C(=O)O [tryptophan, L-tryptophan] | not utilised | moderate utilisation | not utilised |  | able to grow |  | not utilised | could use | could use | not utilised | high utilisation | Use as sole carbon source to support E. faecium growth [10]: could use |
| O=C[C@H](O)[C@@H](O)[C@H](O)CO [xylose, D-xylose] |  |  |  |  |  |  |  |  |  |  |  | Use as sole carbon source to support K. pneumoniae growth ([4]; anaerobic): could use; Use as sole carbon source to support E. coli growth (NDM-1 Escherichia coli [5]; anaerobic): could use; Use as sole carbon source to support E. cloacae growth ([6]; anaerobic): could use |
